Measured values reported in the supplement of paper PMC4862054.

Legend:
Conditions in all cases: incubation time: 72 h
BT-474 [1] = test: normalised viability (% of control), CellTiter-Blue; higher = more viable cells (about 100 = DMSO control)
Experimental: (§1)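 DSRT, CellTiter-Blue viability, 72 h incubation. Signal is normalised to DMSO and benzethonium chloride controls. Value is the normalised response at dose 3.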

BT-549 [2] = test: as above
Experimental: as §1

CAL-120 [3] = test: as above
Experimental: as §1

CAL-148 = test: as above
Experimental: as §1

CAL-51 = test: as above
Experimental: as §1

CAL-85-1 = test: as above
Experimental: as §1

DU-4475 = test: as above
Experimental: as §1

HCC1599 = test: as above
Experimental: as §1

HCC1937 [4] = test: as above
Experimental: as §1

HDQ-P1 = test: as above
Experimental: as §1

Hs578T [5] = test: as above
Experimental: as §1

MDA-MB-231 = test: as above
Experimental: as §1

MDA-MB-436 = test: as above
Experimental: as §1

MDA-MB-453 = test: as above
Experimental: as §1

MDA-MB-468 [6] = test: as above
Experimental: as §1

MFM-223 = test: as above
Experimental: as §1

SK-BR-3 [7] = test: as above
Experimental: as §1

CAL-120 [8] = test: drug sensitivity score (DSS), CellTiter-Blue viability (DSS (AUC-based score)); higher = stronger viability inhibition; extreme values may be limits of the assay
Experimental: (§2)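 DSRT with the CellTiter-Blue (resazurin reduction) viability readout, fluorescence 560/590 nm, 72 h incubation. Plates were normalised to DMSO and benzethonium chloride controls. DSS is computed from the area under the fitted dose-response curve (5 or 9 concentrations).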

SK-BR-3 [9] = test: as above
Experimental: as §2

BT-474 [10] = test: drug sensitivity score (DSS), CellTox Green (DSS (AUC-based score)); higher = stronger drug effect (viability inhibition or cytotoxicity); extreme values may be limits of the assay
Procedure, shortened: (§3)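 In 384-well plates, compound was laid out at 5 concentrations in 10-fold steps over a 10,000-fold range specific to each compound, and breast cancer cell lines were seeded on top in 20 µl suspension for a 72 h incubation. CellTox Green fluorescence and then CellTiter-Glo luminescence were read, and each plate was normalised to 0.1 % DMSO and a positive kill control. The drug sensitivity score was calculated from the area under the fitted dose-response curve.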

BT-549 [11] = test: as above
Procedure, shortened: as §3

CAL-120 [12] = test: as above
Procedure, shortened: as §3

HCC1143 = test: as above
Procedure, shortened: as §3

HCC1937 [13] = test: as above
Procedure, shortened: as §3

Hs578T [14] = test: as above
Procedure, shortened: as §3

MCF-10A = test: as above
Procedure, shortened: as §3

MDA-MB-468 [15] = test: as above
Procedure, shortened: as §3

| SMILES | drug sensitivity score (CAL-120 [8]) | drug sensitivity score (SK-BR-3 [9]) | drug sensitivity score (BT-474 [10]) | drug sensitivity score (BT-549 [11]) | drug sensitivity score (CAL-120 [12]) | drug sensitivity score (HCC1143) | drug sensitivity score (HCC1937 [13]) | drug sensitivity score (Hs578T [14]) | drug sensitivity score (MCF-10A) | drug sensitivity score (MDA-MB-468 [15]) | normalised viability (BT-474 [1]; 10 nM) [%] | normalised viability (BT-549 [2]; 10 nM) [%] | normalised viability (CAL-120 [3]; 10 nM) [%] | normalised viability (CAL-148; 1 nM) [%] | normalised viability (CAL-51; 1 nM) [%] | normalised viability (CAL-85-1; 1 nM) [%] | normalised viability (DU-4475; 1 nM) [%] | normalised viability (HCC1599; 10 nM) [%] | normalised viability (HCC1937 [4]; 10 nM) [%] | normalised viability (HDQ-P1; 1 nM) [%] | other results |
| --- | --- | --- | --- | --- | --- | --- | --- | --- | --- | --- | --- | --- | --- | --- | --- | --- | --- | --- | --- | --- | --- |
| COc1ccc(-c2cc3c(C)nc(N)nc3n([C@H]3CC[C@H](OCCO)CC3)c2=O)cn1 | 17.7 | 24.9 | 11.5 | 5.99 | 0 | 0 | 1.39 | 2 | 0 | 0 | – | – | – | – | – | – | – | – | – | – | normalised viability (BT-474 [1]; 100 nM): 67.8%; normalised viability (BT-549 [2]; 100 nM): 66.9%; normalised viability (CAL-120 [3]; 100 nM): 74.9%; normalised viability (CAL-148; 10 nM): 98.1%; normalised viability (CAL-51; 10 nM): 93.3%; normalised viability (CAL-85-1; 10 nM): 95.3%; normalised viability (DU-4475; 10 nM): 103%; normalised viability (HCC1599; 100 nM): 73.6%; normalised viability (HCC1937 [4]; 100 nM): 65.8%; normalised viability (HDQ-P1; 10 nM): 82%; normalised viability (Hs578T [5]; 100 nM): 60.5%; normalised viability (MDA-MB-231; 100 nM): 63.2%; normalised viability (MDA-MB-436; 100 nM): 80.6%; normalised viability (MDA-MB-453; 10 nM): 86.2%; normalised viability (MDA-MB-468 [6]; 100 nM): 77.3%; normalised viability (MFM-223; 100 nM): 68.8%; normalised viability (SK-BR-3 [7]; 100 nM): 32.9% |
| Cc1c(Cn2c(C)nc3c(C(=O)O)cc(N4CCOCC4)cc32)cccc1C(F)(F)F | – | – | 0 | 0 | 0 | 0 | 0 | 0 | 0 | 0 | – | – | – | – | – | – | – | – | – | – | – |
| Cc1cccc(-c2nn3c(c2-c2ccnc4ccc(C(N)=O)cc24)CCC3)n1 | 0 | 0 | – | – | – | – | – | – | – | – | 107 | 96.4 | 95.1 | 99 | 96.1 | 97.7 | 90.5 | 101 | 122 | 106 | normalised viability (Hs578T [5]; 10 nM): 96.2%; normalised viability (MDA-MB-231; 10 nM): 99%; normalised viability (MDA-MB-436; 10 nM): 127%; normalised viability (MDA-MB-453; 1 nM): 112%; normalised viability (MDA-MB-468 [6]; 10 nM): 110%; normalised viability (MFM-223; 10 nM): 96.8%; normalised viability (SK-BR-3 [7]; 10 nM): 98.9% |
| Cn1cc(CNCC2CCN(c3ncc(C(=O)NO)cn3)CC2)c2ccccc21 | 20.2 | 25.8 | – | – | – | – | – | – | – | – | 78.2 | 103 | 58.3 | 98.3 | 102 | 90.7 | 89 | 73.7 | 76.4 | 100 | normalised viability (Hs578T [5]; 10 nM): 86.8%; normalised viability (MDA-MB-231; 10 nM): 99.5%; normalised viability (MDA-MB-436; 10 nM): 77.9%; normalised viability (MDA-MB-453; 1 nM): 86.3%; normalised viability (MDA-MB-468 [6]; 10 nM): 78.3%; normalised viability (MFM-223; 10 nM): 74.7%; normalised viability (SK-BR-3 [7]; 10 nM): 35.8% |
